Measured values: patent US20220380341A1, “INHIBITORS OF HIV-1 NEF FOR THE TREATMENT OF HIV DISEASE” (priority 2018, published 2022)
pKd: −log10 of the molar value. Several values for one entry are separate records, joined by “and”; a condition that tells them apart may be missing. Equal entries are not always repeated. Where two headings read alike, the source gives them in different places.

Experiments:
HIV-1NL4-3 = test: HIV-1 infectivity assay in TZM-bl reporter cell line (LTR-luciferase, 48 h); assay type: cell-based; details: for inhibition at 1 µM: Human immunodeficiency virus 1, TZM-bl
Method in brief: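 TZM-bl cells (HIV-1 LTR-luciferase) infected with HIV-1NL4-3 with compound at 1 μM; luciferase read 48 h later. Percent inhibition normalized to DMSO wild-type infection (0%) and Nef-defective HIV-1 infection (100% of Nef-dependent effect). Viability in uninfected TZM-bl cells by Cell Titer Blue.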

TZM-bl cell line = assay type: cell-based; details: human, 1 μM
Method in brief: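 Read-out is luciferase from an integrated HIV-1 LTR reporter in TZM-bl cells, 48 h after HIV-1NL4-3 infection in the presence of 1 μM compound. Scale set by DMSO-treated wild-type-infected cells (0%) and Nef-defective virus (100% Nef-dependent effect). Cell Titer Blue measures cytotoxicity without virus.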

HIV-1 NefNL4-3 = HIV-1 NefNL4-3 (Human immunodeficiency virus type 1 group M subtype B, UniProt P03406, A33V/T15A/T51N/V11I); test: Surface plasmon resonance binding to recombinant full-length Nef (NL4-3); details: for RU30/RUNef (extent of binding): response units at 30 μM relative to Nef immobilized on the SPR chip
[1] = 1.0 μM, TZM-bl reporter cell line, Table 4, read-out: % Infectivity Inhibition
[2] = 48 h, Table 1, TZM-bl cells, 1 μM, 48 h, 100% = Nef-defective HIV-1, read-out: HIV-1 Infectivity % Inhibition Norm. to Δ-Nef @ 1 μM
[3] = KD, M, Table 4, SPR fit 1:1 Langmuir, KD = koff/kon
[4] = Table 4, 1:1 Langmuir fit, T = 1/koff
[5] = KD, M, Table 4, SPR fit 2-step induced fit, KD = koff/kon × koff2/(koff2 + kon2)
[6] = Nef NL4-3 Binding, SPR 2-state fitting KD, Table 1, 2-step induced-fit model
[7] = Table 4, 2-step induced fit, T = 1/koff2
[8] = read-out: Nef NL4-3 Binding, SPR 1:1 or 2-site fitting KD2, Table 1, 2-site fit, second component

Row | Compound | inhibition at 1 µM (HIV-1NL4-3; [1]) | inhibition at 1 µM (HIV-1NL4-3; [2]) | % Cell Viability (TZM-bl cell line) | Percent Viability @ 1 μM (TZM-bl cells) (TZM-bl cell line) | pKd (HIV-1 NefNL4-3) | pKd (HIV-1 NefNL4-3; [3]) | T, minutes (residence time) (HIV-1 NefNL4-3; [4]) | RU30/RUNef (extent of binding) (HIV-1 NefNL4-3) | pKd (HIV-1 NefNL4-3; [5]) | pKd (HIV-1 NefNL4-3; [6]) | T, minutes (residence time) (HIV-1 NefNL4-3; [7]) | pKd (HIV-1 NefNL4-3; [8]) | Nef NL4-3 Binding, SPR 1:1 or 2-site fitting KD1 (HIV-1 NefNL4-3; Table 1, 1:1 Langmuir fit where the KD2 cell says '1 to 1 fitting', else 2-site fit) | HIV-1 Infectivity % Inhibition Norm. to Δ-Nef @ 1 μM (HIV-1NL4-3; Table 1, TZM-bl cells, 1 μM, 48 h, 100% = Nef-defective HIV-1) | pKd (HIV-1 NefNL4-3; Nef NL4-3 Binding, SPR 1:1 or 2-site fitting KD2, Table 1, 2-site fit, second component)
1 | Oc1c(CCc2ccc(F)cc2)c(-c2ccc(C(F)(F)F)cn2)nn1-c1nc2cccnc2[nH]1 [Compound I-302, 4-[2-(4-fluorophenyl)ethyl]-1-{3H-imidazo[4,5-b]pyridin-2-yl}-3-[5-(trifluoromethyl)pyridin-2-yl]-1H-pyrazol-5-ol] | 0% | -2.4% | 98.9% | 98.9% | 5.44 | 5.44 | 8.82E + 00 minutes | 1.66E- 03 | – | – | – | – | – | – | –
2 | Cc1ccn(CCc2c(-c3ccc(C(F)(F)F)cc3)nn(-c3nc4cccnc4[nH]3)c2O)n1 [Compound I-303, 1-{3H-imidazo[4,5-b]pyridin-2-yl}-4-[2-(3-methyl-1H-pyrazol-1-yl)ethyl]-3-[4-(trifluoromethyl)phenyl]-1H-pyrazol-5-ol] | 40.1% | 40.6% | 98.3% | 98.3% | 6.40 | 6.40 | 9.47E + 01 minutes | 3.06E- 03 | – | – | – | – | – | – | –
3 | Oc1c(CCC2CCOCC2)c(-c2cccc(F)c2)nn1-c1nc2cccnc2[nH]1 [Compound I-304, 3-(3-fluorophenyl)-1-{3H-imidazo[4,5-b]pyridin-2-yl}-4-[2-(oxan-4-yl)ethyl]-1H-pyrazol-5-ol] | 0% | -2% | 98.7% | 98.7% | 6.86 | – | – | 5.25E- 03 | 5.50 | 5.50 | 1.25E + 01 minutes | 4.39 | – | – | –
4 | CS(=O)(=O)c1cccc(-c2nn(-c3nc4cccnc4[nH]3)c(O)c2CCC2CCOCC2)c1 [Compound I-305, 1-{3H-imidazo[4,5-b]pyridin-2-yl}-3-(3-methanesulfonylphenyl)-4-[2-(oxan-4-yl)ethyl]-1H-pyrazol-5-ol] | 59.3% | 59.3% | 96.8% | 96.8% | 6.13 | 6.13 | 1.13E + 01 minutes | 2.13E- 03 | – | – | – | – | – | – | –
5 | O=C(OCc1ccccc1)N1CCC(c2nn(-c3nc4cccnc4[nH]3)c(O)c2CCc2ccc(F)cc2)CC1 [Compound I-306, benzyl 4-{4-[2-(4-fluorophenyl)ethyl]-5-hydroxy-1-{3H-imidazo[4,5-b]pyridin-2-yl}-1H-pyrazol-3-yl}piperidine-1-carboxylate] | 0% | -5.2% | 95.7% | 95.7% | 7.87 | – | – | 9.61E- 03 | 6.14 | 6.14 | 3.52E + 01 minutes | 5.27 | – | – | –
6 | Oc1c(CCc2ccc(F)cc2)c(CCCc2ccc(F)cc2)nn1-c1nc2cccnc2[nH]1 [Compound I-307, 4-[2-(4-fluorophenyl)ethyl]-3-[3-(4-fluorophenyl)propyl]-1-{3H-imidazo[4,5-b]pyridin-2-yl}-1H-pyrazol-5-ol] | 47.5% | 47.5% | 98.2% | 98.2% | 6.05 | 6.05 | 1.14E + 01 minutes | 6.84E- 03 | – | – | – | – | – | – | –
7 | O=C(OCc1ccccc1)N1CCC(c2nn(-c3nc4ccncc4[nH]3)c(O)c2CCc2ccc(F)cc2)CC1 [Compound I-310, benzyl 4-{4-[2-(4-fluorophenyl)ethyl]-5-hydroxy-1-{3H-imidazo[4,5-c]pyridin-2-yl}-1H-pyrazol-3-yl}piperidine-1-carboxylate] | 36.6% | 36.6% | 100% | 105.6% | 7.30 | 7.30 | 3.56E + 02 minutes | 2.36E- 03 | – | – | – | – | – | – | –
8 | CS(=O)(=O)c1cccc(-c2nn(-c3nc4cccnc4[nH]3)c(O)c2CCc2ccc(F)cc2)c1 [Compound I-311, 4-[2-(4-fluorophenyl)ethyl]-1-{3H-imidazo[4,5-b]pyridin-2-yl}-3-(3-methanesulfonylphenyl)-1H-pyrazol-5-ol] | – | 29.8% | – | 94.5% | 6.00 | – | – | – | – | – | – | – | – | – | –
9 | Oc1c(CC2CCOCC2)c(C2CCOCC2)nn1-c1nc2cccnc2[nH]1 [Compound I-312, 1-{3H-imidazo[4,5-b]pyridin-2-yl}-3-(oxan-4-yl)-4-[(oxan-4-yl)methyl]-1H-pyrazol-5-ol] | – | -33.7% | – | 100.1% | – | – | – | – | – | – | – | – | No Interaction | – | –
10 | Oc1c(CC2CCOCC2)c(-c2ccc(F)cc2)nn1-c1nc2cccnc2[nH]1 [Compound I-313, 3-(4-fluorophenyl)-1-{3H-imidazo[4,5-b]pyridin-2-yl}-4-[(oxan-4-yl)methyl]-1H-pyrazol-5-ol] | 33.2% | 33.2% | 96.7% | 96.7% | 6.32 | 6.32 | 2.92E + 01 minutes | 5.15E- 03 | – | – | – | – | – | – | –
11 | Oc1c(CCc2ccc(F)cc2)c(C2CCOCC2)nn1-c1nc2cccnc2[nH]1 [Compound I-314, 4-[2-(4-fluorophenyl)ethyl]-1-{3H-imidazo[4,5-b]pyridin-2-yl}-3-(oxan-4-yl)-1H-pyrazol-5-ol] | 0% | -1% | 100% | 100.1% | 6.15 | 6.15 | 1.79E + 01 minutes | 2.97E- 03 | – | – | – | – | – | – | –
12 | Oc1c(CC2CCOCC2)c(C2CC2)nn1-c1nc2cccnc2[nH]1 [Compound I-315, 3-cyclopropyl-1-{3H-imidazo[4,5-b]pyridin-2-yl}-4-[(oxan-4-yl)methyl]-1H-pyrazol-5-ol] | – | 28.5% | – | 100.6% | 5.73 | – | – | – | – | – | – | – | – | – | –
13 | Oc1c(CC2CCOCC2)c(C2CC(F)(F)C2)nn1-c1nc2cccnc2[nH]1 [Compound I-316, 3-(3,3-difluorocyclobutyl)-1-{3H-imidazo[4,5-b]pyridin-2-yl}-4-[(oxan-4-yl)methyl]-1H-pyrazol-5-ol] | 32.8% | – | 99.7% | – | – | 5.35 | 5.19E + 00 minutes | 1.19E- 03 | – | – | – | – | – | – | –
14 | Cn1c(-n2nc(-c3ccc(C(F)(F)F)cc3)c(CCc3ccc(F)cc3)c2O)nc2ccccc21 [Compound I-401, 4-[2-(4-fluorophenyl)ethyl]-1-(1-methyl-1H-1,3-benzodiazol-2-yl)-3-[4-(trifluoromethyl)phenyl]-1H-pyrazol-5-ol] | 99.6% | – | 86.4% | – | 5.72 and 6.63 | – | – | 2.01E- 02 | 4.11 | – | 1.45E + 03 minutes | 4.74 | – | 52.3% | 5.61
15 | Cn1c(-n2nc(-c3ccc(S(C)(=O)=O)cc3)c(CCc3ccc(F)cc3)c2O)nc2ccccc21 [Compound I-403, 4-[2-(4-fluorophenyl)ethyl]-3-(4-methanesulfonylphenyl)-1-(1-methyl-1H-1,3-benzodiazol-2-yl)-1H-pyrazol-5-ol] | 4.1% | 4.1% | 99.9% | 99.9% | 5.62 | 5.62 | 3.63E + 00 minutes | 2.88E- 03 | – | – | – | – | – | – | –
16 | CCOC(=O)c1nn(-c2nc3ccccc3[nH]2)c(O)c1CCc1ccc(F)cc1 [Compound I-404, ethyl 1-(1H-1,3-benzodiazol-2-yl)-4-[2-(4-fluorophenyl)ethyl]-5-hydroxy-1H-pyrazole-3-carboxylate] | – | 1.3% | – | 100.5% | 6.89 | – | – | – | – | – | – | – | – | – | –
17 | Cn1c(-n2nc(-c3cccc(S(C)(=O)=O)c3)c(CCc3ccc(F)cc3)c2O)nc2ccccc21 [Compound I-405, 4-[2-(4-fluorophenyl)ethyl]-3-(3-methanesulfonylphenyl)-1-(1-methyl-1H-1,3-benzodiazol-2-yl)-1H-pyrazol-5-ol] | 0% | -9.6% | 95.7% | 95.7% | 5.36 | 5.36 | 2.32E + 00 minutes | 3.25E- 03 | – | – | – | – | – | – | –
